Assay results: ChEMBL document CHEMBL4420076, “Amylin and calcitonin receptor agonist” (2017)
Numbered stars: 1 amine (or outer) side, 2 acyl side, 3 side chain; on linkers, the order of the positions; unused ones are H or OH. Peptide text beside a SMILES is read from it. * marks the point of attachment. C20 diacid = O=C(O)CCCCCCCCCCCCCCCCCCC(=O)*; C18 diacid = O=C(O)CCCCCCCCCCCCCCCCC(=O)*; γGlu = O=C(O)[C@H](CCC(=O)[*:2])N[*:1]

Key:
[1] = Solubility in 100 mM bistrispropane buffer at pH 6.5 incubated for 18 hrs by UPLC analysis; assay type: physicochemical
[2] = Solubility in 100 mM bistrispropane buffer at pH 6.0 incubated for 18 hrs by UPLC analysis; assay type: physicochemical
[3] = Solubility in 100 mM glycylglycine buffer at pH 4.0 incubated for 18 hrs by UPLC analysis; assay type: physicochemical
[4] = target: T1, Amylin receptor AMY3; CALCR/RAMP3 (Homo sapiens, UniProt O60896+P30988); assay: Agonist activity at human amylin receptor expressed in BHK570 cells co-expressing RAMP3 assessed as increase in intracellular cAMP concentration incubated for 3 hrs in presence of 10% FBS by CRE luciferase reporter gene assay; assay type: functional, cell-based
T1 sequence (P30988 whole entry): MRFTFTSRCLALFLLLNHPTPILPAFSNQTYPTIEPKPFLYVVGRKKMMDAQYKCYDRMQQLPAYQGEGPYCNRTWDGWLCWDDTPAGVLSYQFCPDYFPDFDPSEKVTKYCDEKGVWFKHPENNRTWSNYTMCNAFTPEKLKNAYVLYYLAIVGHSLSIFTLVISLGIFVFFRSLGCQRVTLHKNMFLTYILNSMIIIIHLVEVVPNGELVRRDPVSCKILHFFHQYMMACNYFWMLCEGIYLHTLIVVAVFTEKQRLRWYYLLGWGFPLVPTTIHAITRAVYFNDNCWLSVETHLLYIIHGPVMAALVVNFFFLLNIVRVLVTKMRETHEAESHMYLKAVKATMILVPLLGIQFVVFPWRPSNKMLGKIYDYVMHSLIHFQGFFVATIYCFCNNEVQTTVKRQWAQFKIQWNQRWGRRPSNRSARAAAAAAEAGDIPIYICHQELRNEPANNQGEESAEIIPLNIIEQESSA
T1 sequence (O60896 whole entry): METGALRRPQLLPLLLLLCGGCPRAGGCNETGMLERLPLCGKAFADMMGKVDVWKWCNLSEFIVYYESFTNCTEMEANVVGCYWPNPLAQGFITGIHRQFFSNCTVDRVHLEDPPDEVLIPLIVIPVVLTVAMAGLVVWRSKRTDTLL

Calcitonin receptor [5] = target: T2, Calcitonin receptor (Homo sapiens, UniProt P30988); assay: Agonist activity at human calcitonin receptor expressed in BHK570 cells assessed as increase in intracellular cAMP concentration incubated for 3 hrs in absence of albumin by CRE luciferase reporter gene assay; assay type: functional, cell-based
T2 sequence (P30988 whole entry): T1 sequence (P30988 whole entry)

[6] = Solubility in 100 mM glycylglycine buffer at pH 5.0 incubated for 18 hrs by UPLC analysis; assay type: physicochemical
[7] = Solubility in 100 mM bistrispropane buffer at pH 7.5 incubated for 18 hrs by UPLC analysis; assay type: physicochemical
[8] = Solubility in 100 mM bistrispropane buffer at pH 7.0 incubated for 18 hrs by UPLC analysis; assay type: physicochemical
[9] = Solubility in 100 mM glycylglycine buffer at pH 3.0 incubated for 18 hrs by UPLC analysis; assay type: physicochemical
[10] = target: T1, Amylin receptor AMY3; CALCR/RAMP3; assay: Displacement of [125I]-labeled rat amylin from human amylin receptor expressed in BHK tkts13 whole cells co-expressing RAMP3 incubated for 60 mins by scintillation proximity assay; assay type: cell-based
[11] = target: T1, Amylin receptor AMY3; CALCR/RAMP3; assay: Agonist activity at human amylin receptor expressed in BHK570 cells co-expressing RAMP3 assessed as increase in intracellular cAMP concentration incubated for 3 hrs in absence of albumin by CRE luciferase reporter gene assay; assay type: functional, cell-based
[12] = Solubility in 100 mM bistrispropane buffer at pH 8.0 incubated for 18 hrs by UPLC analysis; assay type: physicochemical
Calcitonin receptor [13] = target: T2, Calcitonin receptor; assay: Agonist activity at human calcitonin receptor expressed in BHK570 cells assessed as increase in intracellular cAMP concentration incubated for 3 hrs in presence of 10% FBS by CRE luciferase reporter gene assay; assay type: functional, cell-based

A solubility at 18 h [1] of no less than 200 µM, a solubility at 18 h [2] of no less than 200 µM and a solubility at 18 h [3] of no less than 200 µM were found for `CC(C)C[C@H](NC(=O)[C@H](C)NC(=O)[C@H](C)NC(=O)[C@@H](NC(=O)[C@H](CO)NC(=O)[C@H](CC(C)C)NC(=O)[C@H](CCC(=O)O)NC(=O)[C@H](CO)NC(=O)[C@H](C)NC(=O)CC[C@H](NC(=O)CCCCCCCCCCCCCCCCC(=O)O)C(=O)O)[C@@H](C)O)C(=O)NCC(=O)N[C@@H](CCCNC(=N)N)C(=O)N[C@@H](CC(C)C)C(=O)N[C@@H](CO)C(=O)N[C@@H](C)C(=O)N[C@@H](CCC(=O)O)C(=O)N[C@@H](CC(C)C)C(=O)N[C@@H](Cc1cnc[nH]1)C(=O)N[C@@H](CCC(=O)O)C(=O)N[C@@H](CC(C)C)C(=O)N[C@@H](C)C(=O)N[C@H](C(=O)N[C@@H](CC(C)C)C(=O)N1CCC[C@H]1C(=O)N[C@@H](CCCNC(=N)N)C(=O)N[C@H](C(=O)N[C@@H](CCC(=O)O)C(=O)N[C@H](C(=O)NCC(=O)N[C@@H](CO)C(=O)NCC(=O)N1CCC[C@H]1C(=O)N1CCC[C@H]1C(N)=O)[C@@H](C)O)[C@@H](C)O)[C@@H](C)O` ({C18 diacid-γGlu}-ASELSTAALGRLSAELHELATLPRTETGSGPP-NH2) in this work. It also gave an EC50 [4] of 0.413 nM, an EC50 (Calcitonin receptor [5]) of 0.019 nM and a solubility at 18 h [6] of no less than 200 µM. It also gave a solubility at 18 h [7] of no less than 200 µM, a solubility at 18 h [8] of no less than 200 µM and a solubility at 18 h [9] of no less than 200 µM. It also gave an IC50 [10] of 22 nM, an EC50 [11] of 0.08 nM and a solubility at 18 h [12] of no less than 200 µM.
A solubility at 18 h [1] of no less than 200 µM, an EC50 (Calcitonin receptor [13]) of 0.011 nM and a solubility at 18 h [2] of no less than 200 µM were found for `CC(C)C[C@H](NC(=O)[C@H](CCC(=O)O)NC(=O)[C@H](Cc1cnc[nH]1)NC(=O)[C@H](CC(C)C)NC(=O)[C@H](CCC(=O)O)NC(=O)[C@H](C)NC(=O)[C@H](CO)NC(=O)[C@H](CC(C)C)NC(=O)[C@H](CCCNC(=N)N)NC(=O)CNC(=O)[C@@H](NC(=O)[C@@H](NC(=O)[C@H](C)NC(=O)[C@@H](NC(=O)[C@H](CO)NC(=O)[C@@H](NC(=O)[C@H](CCC(=O)O)NC(=O)[C@H](CO)NC(=O)[C@H](C)NC(=O)CC[C@H](NC(=O)CCCCCCCCCCCCCCCCC(=O)O)C(=O)O)C(C)C)[C@@H](C)O)C(C)C)C(C)C)C(=O)N[C@@H](C)C(=O)N[C@H](C(=O)N[C@@H](CC(C)C)C(=O)N1CCC[C@H]1C(=O)N[C@@H](CCCNC(=N)N)C(=O)N[C@H](C(=O)N[C@@H](CCC(=O)O)C(=O)N[C@H](C(=O)NCC(=O)N[C@@H](CO)C(=O)NCC(=O)N[C@@H](CO)C(=O)N1CCC[C@H]1C(N)=O)[C@@H](C)O)[C@@H](C)O)[C@@H](C)O` ({C18 diacid-γGlu}-ASEVSTAVVGRLSAELHELATLPRTETGSGSP-NH2) in this work. For the same compound, the EC50 [4] was 0.038 nM, the EC50 (Calcitonin receptor [5]) was 0.008 nM and the solubility at 18 h [7] was no less than 200 µM. It also gave a solubility at 18 h [8] of no less than 200 µM, a solubility at 18 h [9] of no less than 200 µM and an IC50 [10] of 1.17 nM. The solubility at 18 h [12] was no less than 200 µM.
A solubility at 18 h [1] of no less than 200 µM, an EC50 (Calcitonin receptor [13]) of 0.092 nM and a solubility at 18 h [2] of no less than 200 µM were found for `CC(C)C[C@H](NC(=O)CNC(=O)[C@H](CO)NC(=O)[C@H](C)NC(=O)CC[C@H](NC(=O)CCCCCCCCCCCCCCCCCCC(=O)O)C(=O)O)C(=O)N[C@@H](CO)C(=O)N[C@H](C(=O)N[C@@H](C)C(=O)N[C@H](C(=O)N[C@@H](CC(C)C)C(=O)NCC(=O)N[C@@H](CCCNC(=N)N)C(=O)N[C@@H](CC(C)C)C(=O)N[C@@H](CO)C(=O)N[C@@H](CCC(N)=O)C(=O)N[C@@H](CCC(=O)O)C(=O)N[C@@H](CC(C)C)C(=O)N[C@@H](Cc1cnc[nH]1)C(=O)N[C@@H](CCC(=O)O)C(=O)N[C@@H](CC(C)C)C(=O)N[C@@H](CCC(N)=O)C(=O)N[C@H](C(=O)N[C@@H](Cc1ccc(O)cc1)C(=O)N1CCC[C@H]1C(=O)N[C@@H](CCCNC(=N)N)C(=O)N[C@H](C(=O)N[C@@H](CCC(=O)O)C(=O)N[C@H](C(=O)NCC(=O)N[C@@H](CO)C(=O)NCC(=O)N[C@H](C(=O)N[C@@H](Cc1ccc(O)cc1)C(N)=O)[C@@H](C)O)[C@@H](C)O)[C@@H](C)O)[C@@H](C)O)[C@@H](C)O)[C@@H](C)O` ({C20 diacid-γGlu}-ASGLSTATLGRLSQELHELQTYPRTETGSGTY-NH2) in this work. For the same compound, the solubility at 18 h [3] was no less than 200 µM, the EC50 [4] was 0.122 nM and the EC50 (Calcitonin receptor [5]) was 0.034 nM. For the same compound, the solubility at 18 h [7] was no less than 200 µM, the solubility at 18 h [8] was no less than 200 µM and the solubility at 18 h [9] was no less than 200 µM. It also gave an IC50 [10] of 0.079 nM, an EC50 [11] of 0.04 nM and a solubility at 18 h [12] of no less than 200 µM.
A solubility at 18 h [1] of no less than 200 µM, an EC50 (Calcitonin receptor [13]) of 0.037 nM and a solubility at 18 h [2] of no less than 200 µM were found for `CC(C)C[C@H](NC(=O)CNC(=O)[C@H](CO)NC(=O)[C@H](C)NC(=O)CC[C@H](NC(=O)CCCCCCCCCCCCCCCCCCC(=O)O)C(=O)O)C(=O)N[C@@H](CO)C(=O)N[C@H](C(=O)N[C@@H](C)C(=O)N[C@H](C(=O)N[C@@H](CC(C)C)C(=O)NCC(=O)N[C@@H](CCCNC(=N)N)C(=O)N[C@@H](CC(C)C)C(=O)N[C@@H](CO)C(=O)N[C@@H](CCC(N)=O)C(=O)N[C@@H](CCC(=O)O)C(=O)N[C@@H](CC(C)C)C(=O)N[C@@H](Cc1cnc[nH]1)C(=O)N[C@@H](CCC(=O)O)C(=O)N[C@@H](CC(C)C)C(=O)N[C@@H](CCC(N)=O)C(=O)N[C@H](C(=O)N[C@@H](Cc1ccc(O)cc1)C(=O)N1CCC[C@H]1C(=O)N[C@@H](CCCNC(=N)N)C(=O)N[C@H](C(=O)N[C@@H](CCC(=O)O)C(=O)N[C@H](C(=O)NCC(=O)N[C@@H](CO)C(=O)N[C@@H](C)C(=O)N[C@H](C(=O)N[C@@H](Cc1ccc(O)cc1)C(N)=O)[C@@H](C)O)[C@@H](C)O)[C@@H](C)O)[C@@H](C)O)C(C)C)[C@@H](C)O` ({C20 diacid-γGlu}-ASGLSTAVLGRLSQELHELQTYPRTETGSATY-NH2) in this work. For the same compound, the solubility at 18 h [3] was no less than 200 µM, the EC50 [4] was 0.077 nM and the EC50 (Calcitonin receptor [5]) was 0.052 nM. For the same compound, the solubility at 18 h [7] was no less than 200 µM, the solubility at 18 h [8] was no less than 200 µM and the solubility at 18 h [9] was no less than 200 µM. For the same compound, the IC50 [10] was 0.244 nM and the solubility at 18 h [12] was no less than 200 µM.
An EC50 (Calcitonin receptor [13]) of 0.05 nM, an EC50 [4] of 0.044 nM and an EC50 (Calcitonin receptor [5]) of 0.012 nM were found for `CC(C)C[C@H](NC(=O)CC[C@H](NC(=O)CCCCCCCCCCCCCCCCCCC(=O)O)C(=O)O)C(=O)N[C@@H](CO)C(=O)N[C@@H](CCC(N)=O)C(=O)N[C@@H](CC(C)C)C(=O)N[C@@H](CO)C(=O)N[C@H](C(=O)N[C@@H](CC(C)C)C(=O)N[C@H](C(=O)N[C@@H](CC(C)C)C(=O)NCC(=O)N[C@@H](CCCNC(=N)N)C(=O)N[C@@H](CC(C)C)C(=O)N[C@@H](CO)C(=O)N[C@@H](CCC(N)=O)C(=O)N[C@@H](CCCNC(=N)N)C(=O)N[C@@H](CC(C)C)C(=O)N[C@@H](Cc1cnc[nH]1)C(=O)N[C@@H](CCCNC(=N)N)C(=O)N[C@@H](CC(C)C)C(=O)N[C@@H](CCC(N)=O)C(=O)N[C@H](C(=O)N[C@@H](Cc1ccc(O)cc1)C(=O)N1CCC[C@H]1C(=O)N[C@@H](CCCNC(=N)N)C(=O)N[C@H](C(=O)N[C@@H](CCC(N)=O)C(=O)N[C@H](C(=O)NCC(=O)N[C@@H](CO)C(=O)N[C@@H](CCC(N)=O)C(=O)N[C@H](C(=O)N[C@@H](Cc1ccc(O)cc1)C(N)=O)[C@@H](C)O)[C@@H](C)O)[C@@H](C)O)[C@@H](C)O)C(C)C)[C@@H](C)O` ({C20 diacid-γGlu}-LSQLSTLVLGRLSQRLHRLQTYPRTQTGSQTY-NH2) in this work. The IC50 [10] was 10.7 nM and the EC50 [11] was 0.01 nM.
